How the values were obtained:
Nociceptin receptor [1] = target: T1, Nociceptin receptor (Homo sapiens, UniProt P41146); assay: Displacement of [125I]Tyr14-NC/OFQ from human ORL1 receptor
[2] = Lipophilicity, log D at pH 7.4 by shake-flask method; type: physicochemical; details: buffer
[3] = target: Kappa-type opioid receptor (Homo sapiens, UniProt P41145); assay: Displacement of [3H]U69593 from human cloned kappa opioid receptor expressed in CHO cells; type: cell-based
Mu-type opioid receptor = Mu-type opioid receptor (Homo sapiens, UniProt P35372); assay: Displacement of [3H]diprenorphin from human cloned mu opioid receptor expressed in CHO cells; type: cell-based
[4] = target: Voltage-gated inwardly rectifying potassium channel KCNH2 (Homo sapiens, UniProt Q12809); assay: Displacement of [35S]MK499 from human ERG expressed in HEK293 cells
Nociceptin receptor [5] = target: T1, Nociceptin receptor; assay: Antagonist activity at ORL1 receptor expressed in CHO cells assessed as inhibition of NC/OFQ-stimulated [35S]GTPgammaS binding; type: functional, cell-based

Chain of Voltage-gated inwardly rectifying potassium channel KCNH2 (Q12809 whole entry): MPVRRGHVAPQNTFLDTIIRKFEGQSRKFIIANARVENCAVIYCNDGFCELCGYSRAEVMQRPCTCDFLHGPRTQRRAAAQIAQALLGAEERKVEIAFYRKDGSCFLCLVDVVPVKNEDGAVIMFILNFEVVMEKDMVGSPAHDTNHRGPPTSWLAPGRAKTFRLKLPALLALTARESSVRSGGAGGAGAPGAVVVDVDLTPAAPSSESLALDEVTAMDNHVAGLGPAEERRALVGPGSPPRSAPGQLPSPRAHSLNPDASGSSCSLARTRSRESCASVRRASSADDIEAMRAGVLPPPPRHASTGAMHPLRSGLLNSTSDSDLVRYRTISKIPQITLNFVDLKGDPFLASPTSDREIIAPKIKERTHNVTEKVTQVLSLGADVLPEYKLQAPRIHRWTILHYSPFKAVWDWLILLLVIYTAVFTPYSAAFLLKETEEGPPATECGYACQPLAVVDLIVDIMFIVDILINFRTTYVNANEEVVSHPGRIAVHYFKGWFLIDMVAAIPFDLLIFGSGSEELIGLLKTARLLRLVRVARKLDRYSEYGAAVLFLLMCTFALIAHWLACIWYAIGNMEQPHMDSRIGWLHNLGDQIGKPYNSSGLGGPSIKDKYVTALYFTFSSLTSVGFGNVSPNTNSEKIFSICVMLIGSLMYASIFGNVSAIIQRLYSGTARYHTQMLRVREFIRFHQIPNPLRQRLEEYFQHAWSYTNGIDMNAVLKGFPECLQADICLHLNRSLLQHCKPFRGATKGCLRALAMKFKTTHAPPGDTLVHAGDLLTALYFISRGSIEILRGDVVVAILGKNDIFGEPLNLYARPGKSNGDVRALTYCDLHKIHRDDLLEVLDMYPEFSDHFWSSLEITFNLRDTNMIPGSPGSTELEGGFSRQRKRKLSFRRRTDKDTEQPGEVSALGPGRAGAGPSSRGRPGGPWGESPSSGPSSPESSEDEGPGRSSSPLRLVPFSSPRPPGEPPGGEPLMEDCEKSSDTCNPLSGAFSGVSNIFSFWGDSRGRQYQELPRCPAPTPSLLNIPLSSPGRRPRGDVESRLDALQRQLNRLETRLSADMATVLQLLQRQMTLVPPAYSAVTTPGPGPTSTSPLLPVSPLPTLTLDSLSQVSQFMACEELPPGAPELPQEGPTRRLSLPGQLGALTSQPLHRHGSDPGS
T1 sequence (P41146 whole entry): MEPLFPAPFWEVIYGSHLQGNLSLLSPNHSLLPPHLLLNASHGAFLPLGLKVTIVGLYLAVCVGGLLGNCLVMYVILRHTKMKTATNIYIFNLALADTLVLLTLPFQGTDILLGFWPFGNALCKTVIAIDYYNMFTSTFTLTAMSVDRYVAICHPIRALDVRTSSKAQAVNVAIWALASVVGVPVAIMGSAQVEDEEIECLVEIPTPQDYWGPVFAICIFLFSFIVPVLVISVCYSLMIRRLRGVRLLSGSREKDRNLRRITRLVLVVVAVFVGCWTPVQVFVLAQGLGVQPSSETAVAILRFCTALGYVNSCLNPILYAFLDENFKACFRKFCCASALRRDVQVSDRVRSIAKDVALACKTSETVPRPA
Chain of Mu-type opioid receptor (P35372 whole entry): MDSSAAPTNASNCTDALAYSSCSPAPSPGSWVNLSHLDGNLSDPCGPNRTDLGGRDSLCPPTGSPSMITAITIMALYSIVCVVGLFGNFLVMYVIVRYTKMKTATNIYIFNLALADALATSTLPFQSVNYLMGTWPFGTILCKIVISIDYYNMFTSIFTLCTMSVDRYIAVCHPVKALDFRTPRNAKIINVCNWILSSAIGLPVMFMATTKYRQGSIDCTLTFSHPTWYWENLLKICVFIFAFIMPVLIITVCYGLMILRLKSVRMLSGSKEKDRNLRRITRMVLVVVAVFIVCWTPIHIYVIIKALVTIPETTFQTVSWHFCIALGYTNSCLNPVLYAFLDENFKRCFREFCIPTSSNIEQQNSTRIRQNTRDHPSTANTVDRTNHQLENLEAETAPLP
Chain of Kappa-type opioid receptor (P41145 whole entry): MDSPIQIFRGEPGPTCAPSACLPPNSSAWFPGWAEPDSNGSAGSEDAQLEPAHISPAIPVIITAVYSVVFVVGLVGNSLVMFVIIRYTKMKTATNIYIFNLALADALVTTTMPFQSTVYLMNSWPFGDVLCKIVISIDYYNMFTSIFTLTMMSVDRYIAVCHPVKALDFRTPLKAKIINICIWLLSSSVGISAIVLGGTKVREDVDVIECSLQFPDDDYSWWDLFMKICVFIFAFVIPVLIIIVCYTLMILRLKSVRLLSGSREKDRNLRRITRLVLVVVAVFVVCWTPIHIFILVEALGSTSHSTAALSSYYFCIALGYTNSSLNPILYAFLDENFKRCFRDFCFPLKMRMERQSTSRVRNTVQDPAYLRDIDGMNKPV

Row | IC50 (Nociceptin receptor [1]) [nM] | logD [2] | IC50 [3] [nM] | IC50 (Mu-type opioid receptor) [nM] | IC50 (Nociceptin receptor [5]) [nM] | Compound | IC50 [4] [nM]
1 | 0.52 | 1.8 | 530 | 5600 | 0.31 | Cc1ncc(-c2c(C)c(CN[C@H]3CC[C@@H](F)C3)nn2-c2ncccc2Cl)cc1F | 41000
2 | 150 | – | – | – | – | Cc1c(CNCCC(C)C)nn(-c2ccc(Cl)cc2Cl)c1-c1ccc(Cl)cc1 | –
3 | > 1000 | – | – | – | – | Cc1c(CN(C(C)C)C2CCCCC2)nn(-c2ccc(Cl)cc2Cl)c1-c1ccc(Cl)cc1 | –
4 | 8.2 | 2.5 | – | – | – | Cc1ccc(-c2c(C)c(CNC3CCCC3)nn2-c2ncc(Cl)cc2Cl)cn1 | –
5 | 2.5 | 1.3 | – | – | 1 | Cc1ccc(-c2c(C)c(CN[C@H]3CC[C@@H](F)C3)nn2-c2ncccc2Cl)cn1 | –
6 | 9.3 | 2.1 | – | – | 4.5 | Cc1ccc(-c2c(C)c(CNC3CCC(F)(F)C3)nn2-c2ncccc2Cl)cn1 (stereo not given) | 21000
7 | 530 | – | – | – | – | Cc1c(CNC2CCCC2)nn(-c2ccc(Cl)cc2Cl)c1-c1ccccn1 | –
8 | – | 2.9 | – | – | – | Cc1c(CNC2CCCC2)nn(-c2ccc(Cl)cc2Cl)c1-c1cccnc1 | –
9 | 61 | 1.3 | – | – | – | Cc1c(CNC2CCCC2)nn(-c2ncccc2Cl)c1-c1cccnc1 | 23000
10 | 11 | 2.1 | – | – | 12 | Cc1c(CNC2CCCC2)nn(-c2ncccc2Cl)c1-c1ccc(Cl)nc1 | 2700
11 | 350 | – | – | – | 480 | Cc1c(CNC(C)C)nn(-c2ccc(Cl)cc2Cl)c1-c1ccc(Cl)cc1 | 23
12 | 270 | 2.2 | – | – | – | Cc1c(CNC2CCCC2)nn(-c2ncccc2Cl)c1-c1ccc(C(F)(F)F)nc1 | –
13 | 13 | 1.6 | – | – | – | Cc1cncc(-c2c(C)c(CNC3CCCC3)nn2-c2ncccc2Cl)c1 | 9000
14 | 33 | 1.2 | – | – | – | Cc1ccc(-c2c(C)c(CNC3CCCC3)nn2-c2ncccc2C)cn1 | –
15 | 72 | – | – | – | – | Cc1ccc(-c2c(C)c(CNC3CCCC3)nn2-c2ncccc2S(C)(=O)=O)cn1 | –
16 | 4 | 1.7 | – | – | 4.7 | Cc1ccc(-c2c(C)c(CNC3CCCC3)nn2-c2ncccc2Cl)cn1 | 16000
17 | 67 | 2 | – | – | – | CCc1ccc(-c2c(C)c(CNC3CCCC3)nn2-c2ncccc2Cl)cn1 | –
18 | > 1000 | – | – | – | – | Cc1c(CN(C)C2CCCCC2)nn(-c2ccc(Cl)cc2Cl)c1-c1ccc(Cl)cc1 | –
19 | 28 | > 4 | – | – | – | Cc1c(CNC2CCCC2)nn(-c2ccc(Cl)cc2Cl)c1-c1ccc(Cl)cc1 | 23
20 | > 1000 | – | – | – | – | Cc1c(CNC2CCCC2)nn(-c2ccc(Cl)cc2Cl)c1-c1ccncc1 | –
21 | 1.1 | 2.1 | – | – | 1.2 | Cc1ncc(-c2c(C)c(CNC3CCCC3)nn2-c2ncccc2Cl)cc1F | –
22 | 7.1 | 2 | – | – | 11 | Cc1ccc(-c2c(C)c(CNC3CCCC3F)nn2-c2ncccc2Cl)cn1 (stereo not given) | 30000
23 | 36 | 1.9 | – | – | – | Cc1ccc(-c2c(C)c(CNC3CCCC3)nn2-c2ncccc2C(F)(F)F)cn1 | –

Row | Compound | IC50 (Nociceptin receptor [1]) [nM] | logD [2] | IC50 [3] [nM] | IC50 (Mu-type opioid receptor) [nM] | IC50 (Nociceptin receptor [5]) [nM] | IC50 [4] [nM]
24 | Cc1c(CN2CCCCC2)nn(-c2ccc(Cl)cc2Cl)c1-c1ccc(Cl)cc1 | 560 | – | – | – | – | –
25 | Cc1c(CNC2CCCCC2)nn(-c2ccc(Cl)cc2Cl)c1-c1ccc(Cl)cc1 | 75 | – | – | – | – | –
26 | Cc1c(CNCC(C)C)nn(-c2ccc(Cl)cc2Cl)c1-c1ccc(Cl)cc1 | 150 | – | – | – | – | –
